Laboratory results published in article PMC7901650, “Garcinoic Acid Is a Natural and Selective Agonist of Pregnane X Receptor” (Journal of Medicinal Chemistry, 2020).

Legend:
recombinant human Pgp = target: T1, recombinant human Pgp (Homo sapiens, UniProt P08183); test: P-glycoprotein activity assay (Pgp-Glo); type: biochemical; conditions: 50 nM to 25 μM
T1 construct: purchased Promega
Text: To evaluate the effects of GA on recombinant human Pgp in a cell membrane fraction, we used the Pgp-Glo assay system (Promega, Madison, WI), according to the manufacturer’s instruction. The assay relies on the ATP dependence of the light-generating reaction of firefly luciferase.

HepaRG cells = test: PXR protein expression in HepaRG cells; type: cell-based; conditions: 24 h, 1 to 25 μM, compared with HepG2
Protocol: HepG2 (human hepatoma cell line; ATCC HB-8065, Manassas, VA) and HepaRG (HPRGC10, Thermo Fisher Scientific) cells were maintained in culture as previously described.[47] Experiments were performed between passages 2 and 10. Cell viability, clonogenic activity, and apoptotic cell death were assessed as previously described (see Figure S2).[58],[59] HT29 human colorectal adenocarcinoma cells (ATCC HTB-38) and its mucous-secreting HT29-MTX subclone (Sigma-Aldrich) were used as intestinal cell models. HT29 cells were cultured in RPMI (Invitrogen; Life Technologies) containing 10% FBS (v/v) and 1% (v/v) L-glutamine. HT29-MTX cells (from Sigma-Aldrich) were cultured in DMEM supplemented with 2 mM glutamine, 1% nonessential amino acids, and 10% FBS. […]
Cells were harvested and lysed in ice-cold cell lysis buffer (Cell Signaling Technology) and 20 μL/mL protease inhibitor cocktail (Roche). […] After incubation in ice for 1 h and centrifugation (12 000 rpm for 20 min at 4 °C), the supernatant was recovered, and total proteins were quantified by the BCA assay kit (Pierce, Thermo Fisher Scientific). […] The band intensity was analyzed using Gel Pro analyzer Software. […]
PXR protein was assessed by immunoblot (10 µg total protein loading) in HepaRG cells treated for 24 hrs with GA at concentrations between 1 and 25 μM (A). […]

T1 sequence (P08183 whole entry): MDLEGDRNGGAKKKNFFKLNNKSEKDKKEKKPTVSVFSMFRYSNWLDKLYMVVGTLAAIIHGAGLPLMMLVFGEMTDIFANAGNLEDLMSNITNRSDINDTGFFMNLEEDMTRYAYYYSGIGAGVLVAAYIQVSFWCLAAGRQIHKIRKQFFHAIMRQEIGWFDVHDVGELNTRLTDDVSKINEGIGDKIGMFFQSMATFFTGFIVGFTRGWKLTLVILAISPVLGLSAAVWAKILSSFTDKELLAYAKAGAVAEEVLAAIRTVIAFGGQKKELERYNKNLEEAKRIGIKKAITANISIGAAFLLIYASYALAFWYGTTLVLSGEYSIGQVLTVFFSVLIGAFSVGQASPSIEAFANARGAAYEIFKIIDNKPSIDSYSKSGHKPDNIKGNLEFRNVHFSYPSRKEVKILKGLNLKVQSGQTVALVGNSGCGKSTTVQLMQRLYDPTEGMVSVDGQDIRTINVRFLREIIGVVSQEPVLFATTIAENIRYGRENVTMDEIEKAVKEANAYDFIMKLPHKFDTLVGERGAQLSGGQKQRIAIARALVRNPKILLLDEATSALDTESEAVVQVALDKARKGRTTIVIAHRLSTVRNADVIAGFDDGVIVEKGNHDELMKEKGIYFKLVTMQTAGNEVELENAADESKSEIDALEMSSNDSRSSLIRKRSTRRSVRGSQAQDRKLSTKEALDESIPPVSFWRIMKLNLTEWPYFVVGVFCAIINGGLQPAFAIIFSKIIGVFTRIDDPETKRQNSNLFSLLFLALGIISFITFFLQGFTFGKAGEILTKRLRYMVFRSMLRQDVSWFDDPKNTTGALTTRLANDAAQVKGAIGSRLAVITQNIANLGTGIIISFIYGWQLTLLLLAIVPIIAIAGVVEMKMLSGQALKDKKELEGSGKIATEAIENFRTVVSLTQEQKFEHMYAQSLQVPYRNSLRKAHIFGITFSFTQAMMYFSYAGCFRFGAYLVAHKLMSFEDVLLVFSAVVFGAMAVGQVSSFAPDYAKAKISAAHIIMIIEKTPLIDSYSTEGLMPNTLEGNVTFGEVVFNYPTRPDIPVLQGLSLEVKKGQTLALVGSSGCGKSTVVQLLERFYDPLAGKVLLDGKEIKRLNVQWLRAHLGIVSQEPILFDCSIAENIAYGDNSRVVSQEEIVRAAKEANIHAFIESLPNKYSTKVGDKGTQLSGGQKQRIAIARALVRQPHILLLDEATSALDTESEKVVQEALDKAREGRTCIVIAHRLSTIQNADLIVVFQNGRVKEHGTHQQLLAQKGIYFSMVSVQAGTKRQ

`C/C(=C\CC/C(C)=C/CC[C@]1(C)CCc2cc(O)cc(C)c2O1)CC/C=C(\C)C(=O)O` [GA (1), (2E,6E,10E)-13-[(2R)-6-hydroxy-2,8-dimethyl-chroman-2-yl]-2,6,10-trimethyltrideca-2,6,10-trienoic acid] was tested, and the “P-glycoprotein (MDR1) activity” value (recombinant human Pgp) was “increased in a dose–dose-dependent manner” and the PXR protein response (HepaRG cells) was “Even higher”.
